Source: US9481630B2, “Ingenane-type diterpene compound, and pharmaceutical composition for treating or preventing viral infectious diseases containing same” (priority 2011, dated 2016)

Tested on: NK92 cells
Test: IFN-γ production in NK92 cells, released IFN-γ in culture supernatant by ELISA
Format: cell-based, human
Settings: for effect on IFN-γ production: 10 nM, similar to the same dose of PMA (positive control)
Procedure: NK92 cells (human NK lymphoma) were obtained from American Type Culture Collection. NK92 cells were kept in α-MEM (Invitrogen, US) containing 20% fetal bovine serum (Invitrogen), 2 mM […], […] (Invitrogen), and were replenished with 100 U/mL IL-2 (Peprotech, US). NK92 cell culture was carried out in a culture medium at 37° C. under 5% CO2 humidity atmosphere. The amount of human IFN-γ was analyzed according to the protocol of a supplier using an assay kit (Endogen, Woburn, US).
In order to detect IFN-γ, 2×10^5 NK92 cell/mL was inoculated in a 48-well culture plate, and was cultured for 12 hours with each isolated compounds in an α-MEM medium containing 20% FBS and IL-2. The IFN-γ released in the culture supernatant was analyzed using an ELISA method. The absorbance was measured on a microplate reader and the treatment and the analysis for all the compounds were repeated twice. The cell toxicity of the compound-treated NK92 cells was evaluated through an MTT analysis.

Compound	effect on IFN-γ production	activity for inducing IFN-γ production (5 μM)	further results
CCCCCCCCCCCC(=O)O[C@@]12C[C@@H](C)[C@]34C=C(C)[C@H](O)[C@@]3(O)[C@H](OC(=O)C(C)C(C)C)C(C)=C[C@H](C4=O)C1C2(C)C (stereo partly drawn) [Compound 1, 5-O-(2,3-dimethylbutanoyl)-13-O-dodecanoyl-20-O-deoxyingenol]	–	–	activity for inducing IFN-γ production (1.25 μM): had activity for inducing IFN-γ production
CCCCCCCCCC(=O)OCC1=C[C@@H]2C(=O)[C@]3(C=C(C)[C@H](O)[C@@]3(O)[C@@H]1O)[C@H](C)C[C@@H]1[C@H]2C1(C)C [Compound 3, 20-O-decanoylingenol]	–	–	activity for inducing IFN-γ production (100 nM): had activity for inducing IFN-γ production
CCCCC/C=C\C=C\C(=O)O[C@H]1C(C)=C[C@]23C(=O)[C@@H](C=C(COC(C)=O)[C@@H](O)[C@]12O)[C@H]1[C@@H](C[C@H]3C)C1(C)C [Compound 4, 20-O-acetylingenol-3-O-(2′E,4′Z) decadienate]	significant effects on the IFN-γ production	–	–
CCCCCCCCCCCC(=O)O[C@@]12C[C@@H](C)[C@]34C=C(C)[C@H](OC(=O)C(C)C(C)C)[C@@]3(O)[C@H](O)C(CO)=C[C@H](C4=O)[C@@H]1C2(C)C (stereo partly drawn) [Compound 6, 3-O-(2,3-dimethylbutanoyl)-13-O-dodecanoylingenol]	significant effects on the IFN-γ production	–	–
C[C@H](C/C=C/C(C)(C)O)[C@@H]1CC[C@]2(C)C3=C(CC[C@@]12C)[C@@]1(C)CC[C@H](O)C(C)(C)C1CC3 (stereo partly drawn) [Compound 8, (20R,23E)-eupha-8,23-diene-3b,25-diol]	–	had activity for inducing IFN-γ production	–
gansuiphorin A [Compound 5]	–	had activity for inducing IFN-γ production	–
